Test results reported in patent publication EP2257297B1, “COMPOUNDS FOR USE IN THE TREATMENT OF ACNE, SEBORRHOEA AND SEBHORROEIC DERMATITIS, OR FOR REDUCING SEBUM SECRETION” (priority 2008, dated 2009).
pIC50: −log10 of the molar value. One block for each molecule: values may come before it.

Assays:
[1] = target: human MC1R; assay: Human MC1R radioligand binding assay ([125I] NDP-MSH); settings: Table 6, hMCR binding selectivity
Method: (§1) Radioligand binding assays were carried out using commercial or in-house prepared hMC1 R, hMC3R and hMC4R membranes and [^125I]
(§2) In-house plasma membranes were prepared from transfected mammalian cells (prepared as in Example 109, using plasmid DNA containing the human MC1 R, MC3R or MC4R gene or other gene of interest in a plasmid vector with a mammalian origin of replication): • Adherent cells were washed with warm Hanks buffered saline solution (HBSS). 1 mL of cold HBSS was added to each flask and the cells were scraped off with a rubber policeman. The scraped cells were added to a 50 mL tube on ice. The plates were then rinsed twice with 5 mL cold HBSS and this was also added to the tube. The cells were centrifuged at 1000 x g for 5 mins in a bench top centrifuge and the supernatant was decanted. The remaining cell pellet was resuspended in 0.25 M sucrose. The cell suspension was centrifuged again as previously and the pellet resuspended in 5 mL of 0.25 M sucrose containing protease inhibitors. The cells were homogenised by a 10 second pulse with an Ika disperser followed by 30 seconds on ice. The homogenisation and ice incubation was repeated three times. The mixture was then centrifuged at 1260 x g for 5 mins. […]

[2] = target: human MC3R; assay: Human MC3R radioligand binding assay ([125I] NDP-MSH); settings: Table 6, hMCR binding selectivity
Method: as §1, §2

[3] = target: human MC4R; assay: Human MC4R radioligand binding assay ([125I] NDP-MSH); settings: Table 6, hMCR binding selectivity
Method: as §1, §2

[4] = target: T1, human MC5R (Homo sapiens, UniProt P33032); assay: Human MC5R radioligand binding assay ([125I] NDP-MSH displacement, hMC5R membranes); settings: compounds tested as trifluoroacetate or hydrochloride salts, or as free base
T1 construct: purchased Perkin Elmer RBXMC5M400UA
Summary of the method: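 Bound ligand collected by filtration on PEI-soaked GF/A filters and counted. Data fitted to a single-site competition model with fixed Hill coefficient to give EC50.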

[5] = hMC5R binding assay as in Example 102

T1 sequence (P33032 whole entry): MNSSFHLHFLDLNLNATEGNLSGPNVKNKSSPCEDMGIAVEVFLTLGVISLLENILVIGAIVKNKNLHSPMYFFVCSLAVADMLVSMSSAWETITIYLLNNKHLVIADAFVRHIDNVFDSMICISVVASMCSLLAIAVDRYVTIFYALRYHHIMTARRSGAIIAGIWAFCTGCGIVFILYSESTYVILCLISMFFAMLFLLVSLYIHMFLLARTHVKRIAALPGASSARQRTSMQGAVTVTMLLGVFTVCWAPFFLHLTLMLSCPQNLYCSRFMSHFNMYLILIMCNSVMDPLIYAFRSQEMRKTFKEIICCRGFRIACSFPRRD

SMILES: O=C(/C=C/c1ccc(Cl)cc1)NC[C@@H]1CCN(CC(c2ccccc2)c2ccccc2)C(=O)[C@H](CCN2CCCCC2)N1 [Compound 33, (E)-3-(4-chlorophenyl)-N-(((3S,5S)-1-(2,2-diphenylethyl)-2-oxo-3-(2-(piperidin-1-yl)ethyl)-1,4-diazepan-5-yl)methyl)acrylamide]
pIC50 [1]: 5.55
pIC50 [2]: 5.82
pIC50 [3]: 5.22

SMILES: CCC(CC)CN1CC[C@@H](CNC(=O)/C=C/c2ccc(Cl)cc2)N[C@@H](CCN2CCCCC2)C1=O [Compound 348, (E)-3-(4-chlorophenyl)-N-(((3S,5S)-1-(2-ethylbutyl)-2-oxo-3-(2-(piperidin-1-yl)ethyl)-1,4-diazepan-5-yl)methyl)acrylamide]
pIC50 [2]: 5.74

SMILES: CCC(CN1CCC(CNC(=O)c2ccc3cc(Cl)ccc3c2)N[C@@H](C2CCNCC2)C1=O)c1ccccc1 (stereo partly drawn) [Compound 472, (S)-6-chloro-N-((2-oxo-1-(2-phenylbutyl)-3-(piperidin-4-yl)-1,4-diazepan-5-yl)methyl)-2-naphthamide]
pIC50 ([4]; hMC5R assay as in Example 102): > 7.00

SMILES: CCC(CN1CCC(CNC(=O)c2ccc3cc(Cl)ccc3c2)N[C@@H](C2CCN(CCC(C)C)CC2)C1=O)c1ccccc1 (stereo partly drawn) [Compound 473]
pIC50 ([4]; hMC5R assay as in Example 102): > 7.00

SMILES: CC[C@H](CN1CC[C@H](CNC(=O)c2ccc3cc(Cl)ccc3c2)N[C@H](CC(C)(C)N)C1=O)c1ccccc1 [Compound 494, N-(((3R,5R)-3-(2-amino-2-methylpropyl)-2-oxo-1-((S)-2-phenylbutyl)-1,4-diazepan-5-yl)methyl)-6-chloro-2-naphthamide]
pIC50 [4, 5]: > 5.00

SMILES: CC[C@H](CN1CC[C@@H](CNC(=O)c2ccc3cc(Cl)ccc3c2)N[C@@H](CCN2CCCCC2)C1=O)c1ccccc1 [Compound 569, 6-chloro-N-(([5-^13C,4-^15N](3S,5S)-2-oxo-1-((S)-2-phenylbutyl)-3-(2-(piperidin-1-yl)ethyl)-1,4-diazepan-5-yl)[^13C]methyl)-2-naphthamide]
pIC50 [4, 5]: > 8.00

SMILES: CC[C@H](CN1CC[C@H](CNC(=O)c2ccc3cc(Cl)ccc3c2)N[C@@H](CCN2CCCCC2)C1=O)c1ccccc1 [Compound 581, 6-chloro-N-(((3S,5R)-2-oxo-1-((S)-2-phenylbutyl)-3-(2-(piperidin-1-yl)ethyl)-1,4-diazepan-5-yl)methyl)-2-naphthamide]
pIC50 [4, 5]: > 7.00

Further lines, results first:

pIC50 [1]: 5.18
pIC50 [3]: 5.48
SMILES: N=C(N)NCCC[C@@H]1N[C@H](CNC(=O)c2ccc3ccccc3c2)CCN(CC(c2ccccc2)c2ccccc2)C1=O [Compound 105, N-(((3S,5S)-1-(2,2-diphenylethyl)-3-(3-guanidinopropyl)-2-oxo-1,4-diazepan-5-yl)methyl)-2-naphthamide]

pIC50 ([4]; hMC5R assay as in Example 102): > 7.00
SMILES: CCN(CC)CC[C@@H]1N[C@H](CNC(=O)/C=C/c2ccc(Cl)cc2)CCN(CC(c2ccccc2)c2ccccc2)C1=O [Compound 378, (E)-3-(4-chlorophenyl)-N-(((3S,5S)-3-(2-(diethylamino)ethyl)-1-(2,2-diphenylethyl)-2-oxo-1,4-diazepan-5-yl)methyl)acrylamide]

pIC50 [4, 5]: > 6.00
SMILES: CC[C@@H](CN1CC[C@H](CNC(=O)c2ccc3cc(Cl)ccc3c2)N[C@H](CCN2CCCCC2)C1=O)c1ccccc1 [Compound 580, 6-chloro-N-(((3R,5R)-2-oxo-1-((R)-2-phenylbutyl)-3-(2-(piperidin-1-yl)ethyl)-1,4-diazepan-5-yl)methyl)-2-naphthamide]

pIC50 [4, 5]: > 6.00
SMILES: CC[C@@H](CN1CC[C@H](CNC(=O)c2ccc3cc(Cl)ccc3c2)N[C@@H](CCN2CCCCC2)C1=O)c1ccccc1 [Compound 583, 6-chloro-N-(((3S,5R)-2-oxo-1-((R)-2-phenylbutyl)-3-(2-(piperidin-1-yl)ethyl)-1,4-diazepan-5-yl)methyl)-2-naphthamide]

pIC50 [4, 5]: > 5.00
SMILES: CC[C@H](CN1CC[C@H](CNC(=O)c2ccc3cc(Cl)ccc3c2)N[C@H](CCN2CCCCC2)C1=O)c1ccccc1 [Compound 585, 6-chloro-N-(((3R,5R)-2-oxo-1-((S)-2-phenylbutyl)-3-(2-(piperidin-1-yl)ethyl)-1,4-diazepan-5-yl)methyl)-2-naphthamide]
